Test results: US7034044B2, “Conjugated aromatic compounds with a pyridine substituent” (Hoffmann-La Roche Inc., priority 2001, dated 2006)
pIC50: −log10 of the molar value. Where a name gives a salt, the structure may show the parent alone.

Key:
NMDA-receptor subtype 2B = target: T1, NMDA-receptor subtype 2B (Rattus norvegicus, UniProt P35439+Q00960); experiment: 3H-Ro 25-6981 binding (displacement); conditions: displacement of 5 nM 3H-Ro 25-6981 from rat brain membranes (whole brain minus cerebellum and medulla oblongata), 2 hours at 4° C., Tris-HCl 50 mM pH 7.4
T1 construct: Membranes were prepared by homogenization of the whole brain minus cerebellum and medulla oblongata; from tissue; host or cells: rat whole brain minus cerebellum and medulla oblongata (membranes)
T1 sequence (Q00960 27-1482, other chains not shown): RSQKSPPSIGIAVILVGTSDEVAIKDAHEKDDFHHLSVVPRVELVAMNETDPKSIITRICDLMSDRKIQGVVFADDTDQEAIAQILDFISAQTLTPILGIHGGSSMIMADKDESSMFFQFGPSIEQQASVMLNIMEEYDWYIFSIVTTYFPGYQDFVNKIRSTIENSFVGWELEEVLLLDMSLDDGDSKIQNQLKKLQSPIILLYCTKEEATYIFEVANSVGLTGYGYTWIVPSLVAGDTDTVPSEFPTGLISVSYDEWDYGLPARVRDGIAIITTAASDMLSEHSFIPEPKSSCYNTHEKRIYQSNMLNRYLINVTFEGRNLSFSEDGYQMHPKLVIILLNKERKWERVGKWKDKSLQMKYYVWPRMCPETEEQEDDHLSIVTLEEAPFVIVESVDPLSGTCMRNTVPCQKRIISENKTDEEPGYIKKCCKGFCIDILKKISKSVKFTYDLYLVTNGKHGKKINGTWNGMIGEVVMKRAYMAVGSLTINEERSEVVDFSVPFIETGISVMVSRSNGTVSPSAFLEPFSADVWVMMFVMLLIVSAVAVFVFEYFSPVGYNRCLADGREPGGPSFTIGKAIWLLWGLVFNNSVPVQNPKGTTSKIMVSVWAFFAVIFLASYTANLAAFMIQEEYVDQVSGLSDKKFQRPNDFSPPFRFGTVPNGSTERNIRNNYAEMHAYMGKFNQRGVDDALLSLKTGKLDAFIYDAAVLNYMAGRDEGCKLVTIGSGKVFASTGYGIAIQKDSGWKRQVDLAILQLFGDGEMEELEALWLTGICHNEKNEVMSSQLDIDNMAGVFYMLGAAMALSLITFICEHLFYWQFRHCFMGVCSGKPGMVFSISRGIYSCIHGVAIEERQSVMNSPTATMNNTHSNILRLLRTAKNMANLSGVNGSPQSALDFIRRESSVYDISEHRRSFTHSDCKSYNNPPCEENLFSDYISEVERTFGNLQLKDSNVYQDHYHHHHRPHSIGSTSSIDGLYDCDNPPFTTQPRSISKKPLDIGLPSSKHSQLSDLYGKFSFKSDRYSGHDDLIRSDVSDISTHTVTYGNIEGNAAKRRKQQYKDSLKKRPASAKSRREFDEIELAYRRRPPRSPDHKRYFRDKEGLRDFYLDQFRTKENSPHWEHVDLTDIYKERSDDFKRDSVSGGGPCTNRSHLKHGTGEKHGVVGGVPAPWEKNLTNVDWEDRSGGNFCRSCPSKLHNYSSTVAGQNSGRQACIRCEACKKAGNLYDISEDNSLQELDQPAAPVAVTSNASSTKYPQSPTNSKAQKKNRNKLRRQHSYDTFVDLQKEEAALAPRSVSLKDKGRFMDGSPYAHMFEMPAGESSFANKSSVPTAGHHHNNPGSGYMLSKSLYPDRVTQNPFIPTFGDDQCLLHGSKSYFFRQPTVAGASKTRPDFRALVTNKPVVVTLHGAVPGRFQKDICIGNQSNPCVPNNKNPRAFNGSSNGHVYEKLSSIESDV
Method: ^3H-Ro 25-6981 binding (Ro 25-6981 is [R—(R*,S*)]-α-(4-Hydroxy-phenyl)-β-methyl-4-(phenyl-methyl)-1-piperidine propanol)
Male Füllinsdorf albino rats weighing between 150–200 g were used. Membranes were prepared by homogenization of the whole brain minus cerebellum and medulla oblongata with a Polytron (10.000 rpm, 30 seconds), in 25 volumes of a cold Tris-HCl 50 mM, EDTA 10 mM, pH 7.1 buffer. The homogenate was centrifuged at 48,000 g for 10 minutes at 4° C. The pellet was resuspended using the Polytron in the same volume of buffer and the homogenate was incubated at 37° C. for 10 minutes. After centrifugation the pellet was homogenized in the same buffer and frozen at −80° C. for at least 16 hours but not more than 10 days. For the binding assay the homogenate was thawed at 37° C., centrifuged and the pellet was washed three times as above in a Tris-HCl 5 mM, pH 7.4 cold buffer. The final pellet was resuspended in the same buffer and used at a final concentration of […].
^3H-Ro 25-6981 binding experiments were performed using a Tris-HCl 50 mM, pH 7.4 buffer. For displacement experiments 5 nM of ^3H-Ro 25-6981 were used and non specific binding was measured using 10 mM of tetrahydroisoquinoline and usually it accounts for 10% of the total. The incubation time was 2 hours at 4° C. and the assay was stopped by filtration on Whatmann GF/B glass fiber filters (Unifilter-96, Packard, Zürich, Switzerland). The filters were washed 5 times with cold buffer. The radioactivity on the filter was counted on a Packard Top-count microplate scintillation counter after addition of […] of microscint 40 (Canberra Packard S. A., Zürich, Switzerland).
The above procedure was performed to determine data for calculation of an IC50 value. The IC50 value is a concentration expressed in micromoles (μM) for a test compound at which 50% of the ligand (in this determination, ^3H-Ro 25-6981) bonded to the receptor is displaced. The binding ability of the compounds of the invention was measured in vitro using a minimum of 10 concentrations and repeated at least once. The specific binding at each concentration was then calculated as the % of the maximum specific binding (100%) obtained in the same experiment, in the absence of a test compound. Competitive displacement of ^3H-Ro 25-6981 was observed, with complete displacement of the radioligand from specific binding sites (usually about 0% of specific binding at the highest concentrations tested). An IC50 value was then calculated with all the ten datapoints (% of specific bound) by plotting the data on a semilogarithmic scale with a sigmoidal fit (Log of the molar concentration on X-axis vs. % of specific bound on the Y-axis) using Microsoft Excel fit software or Microcal Origin software. The pooled normalized values were analyzed using a non-linear regression calculation program which provide IC50 with their relative upper and lower 95% confidence limits.

| Structure (SMILES) | melting point | pIC50 (NMDA-receptor subtype 2B) |
| --- | --- | --- |
| COc1ccc2c(c1)C=C(c1cc(N)ccn1)CC2.O=C(O)/C=C/C(=O)O | 193 to 194 °C |  |
| COc1ccc(C=Cc2cccc(N)n2)cc1.Cl | 224 to 226 °C |  |
| Nc1cc(CO)nc(C2=Cc3ccccc3CC2)c1.O=C(O)/C=C/C(=O)O | 113 °C (dec.) |  |
| Nc1cccc(C2=Cc3ccccc3CC2)n1.O=C(O)/C=C/C(=O)O | 153 to 154 °C |  |
| COc1cccc2c1CCC(c1cc(N)ccn1)=C2.O=C(O)/C=C/C(=O)O | 207 to 208 °C |  |
| Cc1cc(N)cc(C2=Cc3ccccc3CC2)n1.O=C(O)/C=C/C(=O)O [Example 22, 2-(3,4-Dihydro-naphthalen-2-yl)-6-methyl-pyridin-4-yl-amine fumarate] | 202 to 203 °C | 7.49 |
| Cc1cnc(C2=Cc3ccccc3CC2)cc1N.O=C(O)/C=C/C(=O)O [Example 24, 2-(3,4-Dihydro-naphthalen-2-yl)-5-methyl-pyridin-4-yl-amine fumarate] | > 200 °C (dec.) | 7.96 |
| Cl.Nc1cccc(C=Cc2ccc(Cl)c(Cl)c2)n1 | > 250 °C |  |
| Cc1cc(/C=C/c2ccccc2)cc(N)n1 [Example 13, trans-6-Methyl-4-styryl-pyridin-2-yl-amine] | 149 to 150 °C | 7.52 |
| Cc1cc(N)cc(C2=Cc3ccccc3C(C)C2)n1.O=C(O)/C=C/C(=O)O (racemic) | 183 to 185 °C (dec.) |  |
| CCc1cc(N)cc(C2=Cc3ccccc3CC2)n1.O=C(O)/C=C/C(=O)O [Example 26, 2-(3,4-Dihydro-naphthalen-2-yl)-6-ethyl-pyridin-4-yl-amine fumarate] | > 230 °C (dec.) | 7.42 |
| CNc1ccnc(C2=Cc3ccccc3CC2)c1.O=C(O)/C=C/C(=O)O [Example 27, [2-(3,4-Dihydro-naphthalen-2-yl)-pyridin-4-yl]-methyl-amine fumarate] | 106 to 107 °C | 7.28 |
| Cc1cnc(C2=Cc3cc(Cl)ccc3CC2)cc1N.O=C(O)/C=C/C(=O)O | > 250 °C |  |
| CCc1cc(N)cc(C2=Cc3cc(Cl)ccc3CC2)n1.O=C(O)/C=C/C(=O)O [Example 36, 2-(7-Chloro-3,4-dihydro-naphthalen-2-yl)-6-ethyl-pyridin-4-yl-amine fumarate] | 232 to 233 °C | 7.64 |
| Cc1cc(N)nc(C2=Cc3ccccc3CC2)c1.O=C(O)/C=C/C(=O)O | 142 to 143 °C |  |
| Cc1cc(N)nc(/C=C/c2ccccc2)c1.Cl [Example 14, trans-4-Methyl-6-styryl-pyridin-2-yl-amine hydrochloride] | > 250 °C | 8.00 |
| Nc1ccc(/C=C/c2ccccc2)nc1 [Example 15, trans-6-Styryl-pyridin-3-yl-amine] | 159 to 160 °C |  |
| Cc1cc(C)c2c(c1)C=C(c1cc(N)ccn1)CC2.O=C(O)/C=C/C(=O)O [Example 34, 2-(5,7-Dimethyl-3,4-dihydro-naphthalen-2-yl)-pyridin-4-yl-amine fumarate] | 231 to 232 °C | 7.24 |
| Nc1ccnc(C2=Cc3ccsc3CC2)c1.O=C(O)/C=C/C(=O)O | 199 to 200 °C |  |
| Cl.Nc1cccc(C=Cc2cccc(F)c2)n1 | > 250 °C |  |

| Structure (SMILES) | melting point | pIC50 (NMDA-receptor subtype 2B) |
| --- | --- | --- |
| Cc1ccc(C)c2c1C=C(c1cc(N)ccn1)CC2.O=C(O)/C=C/C(=O)O | 232 to 233 °C |  |
| CC1CC(c2cc(N)ccn2)=Cc2ccccc21.O=C(O)/C=C/C(=O)O (racemic) | 176 to 177 °C |  |
| Cl.Nc1cccc(C=Cc2ccc(F)cc2)n1 | > 250 °C |  |
| Cc1cnc(C2=Cc3ccsc3CC2)cc1N.O=C(O)/C=C/C(=O)O | 218 to 219 °C |  |
| Cl.NCc1cccc(/C=C/c2ccccc2)n1 [Example 18, trans-C-(6-Styryl-pyridin-2-yl)-methylamine hydrochloride] | 170 °C (dec.) | 7.10 |
| Cc1c(N)ccnc1C1=Cc2ccccc2CC1 [Example 25, 2-(3,4-Dihydro-naphthalen-2-yl)-3-methyl-pyridin-4-yl-amine] | 87 to 88 °C |  |
| Cl.NCc1cccc(C2=Cc3ccccc3CC2)n1 [Example 28, C-[6-(3,4-Dihydro-naphthalen-2-yl)-pyridin-2-yl]-methylamine hydrochloride] | 203 to 204 °C | 7.42 |
| Cl.Nc1cccc(C=Cc2cccc(Cl)c2)n1 | 248 to 249 °C |  |
| Cl.Nc1cccc(C=Cc2cccc(C(F)(F)F)c2)n1 | 222 to 223 °C |  |
| Nc1ccnc(C2=Cc3cc(Cl)ccc3CC2)c1 [Example 30, 2-(7-Chloro-3,4-dihydro-naphthalen-2-yl)-pyridin-4-ylamine fumarate] |  | 7.70 |
| Cl.Nc1cccc(C=Cc2ccccc2F)n1 | > 250 °C |  |
| Nc1cccc(C=Cc2ccc(O)cc2)n1 [Example 11, 4-[2-(6-Amino-pyridin-2-yl)-vinyl]-phenol] | 224 to 225 °C |  |
| CNc1cccc(/C=C/c2ccccc2)n1.Cl | 157 to 158 °C |  |
| Cl.Nc1ccnc(C2=Cc3ccccc3CC2)c1 [Example 19, 2-(3,4-Dihydro-naphthalen-2-yl)-pyridin-4-yl-amine hydrochloride] | 231 to 232 °C | 7.74 |
| Cc1cc(N)cc(C2=Cc3cc(Cl)ccc3CC2)n1.O=C(O)/C=C/C(=O)O [Example 37, 2-(7-Chloro-3,4-dihydro-naphthalen-2-yl)-6-methyl-pyridin-4-yl-amine fumarate] | 232 to 233 °C | 7.09 |
| Cc1cnc(C2=Cc3ccccc3C(C)C2)cc1N.O=C(O)/C=C/C(=O)O (racemic) | 210 to 211 °C |  |
| Cl.Nc1cccc(C=Cc2ccc(Cl)cc2)n1 | > 250 °C |  |
| Cc1ccc(C=Cc2cccc(N)n2)cc1.Cl | > 250 °C |  |
| Nc1ccnc(/C=C/c2ccccc2)c1 [Example 16, trans-2-Styryl-pyridin-4-yl-amine] | 164 to 165 °C | 7.40 |
